Measured values as given in US7795278B2 (sanofi-aventis Deutschland GmbH, priority 2004, dated 2010).

Biological target: recombinantly expressed human PARP-1 enzyme (Homo sapiens, UniProt P09874)
Experiment: PARP enzyme assay (half-maximum inhibitor concentration)
Type: biochemical
Details: DNA-activated PARP-1, 200 μM NAD, tritium-labeled NAD incorporation, room temperature, 1 hour, pH 8.0
Procedure: Pharmacological Investigations PARP Enzyme Assay
The half-maximum inhibitor concentration is determined by incubating the substances to be tested with the DNA-activated, recombinantly expressed and purified PARP-1 enzyme. Specifically, various concentrations of the test substance are incubated in 50 μl of reaction solution, which contains 50 mM Tris, 5 mM MgCl2, 1 mM DTT, 200 μM NAD, 0.1 mCi/ml tritium-labeled NAD, 0.1 mg/ml DNA, 0.1 mg/ml histones, 2 μg/ml recombinantly expressed human PARP-1 enzyme, pH=8.0, at room temperature for 1 hour. The reaction is stopped by adding 150 μl of 20% trichloroacetic acid, and the radiolabeled protein constituents are precipitated. After incubation on ice for 10 minutes, the labeled, insoluble constituents are separated off through a glass fiber filter and, after washing with 20% trichloroacetic acid three times, the radioactivity incorporated by the PARP-1 enzyme is measured by radioluminescence.
IC-50 values were determined in this way for the following compounds: […]

Sequence of recombinantly expressed human PARP-1 enzyme (P09874 whole entry): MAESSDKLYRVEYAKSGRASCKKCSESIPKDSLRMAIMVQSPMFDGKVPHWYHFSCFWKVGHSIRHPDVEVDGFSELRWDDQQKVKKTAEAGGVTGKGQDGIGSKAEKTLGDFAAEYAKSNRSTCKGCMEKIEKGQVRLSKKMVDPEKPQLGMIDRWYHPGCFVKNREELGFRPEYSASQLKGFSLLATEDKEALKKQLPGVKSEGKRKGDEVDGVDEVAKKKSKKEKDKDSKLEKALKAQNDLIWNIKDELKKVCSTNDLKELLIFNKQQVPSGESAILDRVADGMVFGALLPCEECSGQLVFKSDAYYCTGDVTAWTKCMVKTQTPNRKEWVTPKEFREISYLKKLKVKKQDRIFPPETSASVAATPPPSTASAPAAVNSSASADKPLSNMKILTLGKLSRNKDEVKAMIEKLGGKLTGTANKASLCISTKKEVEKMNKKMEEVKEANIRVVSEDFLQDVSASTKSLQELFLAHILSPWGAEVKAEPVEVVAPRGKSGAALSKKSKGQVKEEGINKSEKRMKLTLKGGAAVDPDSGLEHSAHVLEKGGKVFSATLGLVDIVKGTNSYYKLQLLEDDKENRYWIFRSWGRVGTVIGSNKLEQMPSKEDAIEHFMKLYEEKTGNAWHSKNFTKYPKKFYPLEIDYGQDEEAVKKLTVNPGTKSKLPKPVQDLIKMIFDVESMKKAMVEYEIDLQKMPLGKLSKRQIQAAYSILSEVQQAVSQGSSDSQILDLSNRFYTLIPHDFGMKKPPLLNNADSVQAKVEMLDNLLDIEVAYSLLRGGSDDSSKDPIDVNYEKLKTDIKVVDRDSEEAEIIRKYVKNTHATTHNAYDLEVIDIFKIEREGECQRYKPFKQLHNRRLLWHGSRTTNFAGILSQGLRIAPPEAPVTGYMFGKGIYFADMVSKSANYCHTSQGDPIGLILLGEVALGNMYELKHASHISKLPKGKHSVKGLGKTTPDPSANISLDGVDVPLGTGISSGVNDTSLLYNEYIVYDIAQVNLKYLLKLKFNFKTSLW

SMILES	IC50 [nM]
CC(=O)Nc1ccc(CNC(=O)c2cncc(-c3c[nH]c(=O)c4c3CCCC4)c2)cc1 [Example 37, N-(4-acetylaminobenzyl)-5-(1-oxo-1,2,5,6,7,8-hexahydroisoquinolin-4-yl)nicotinamide]	4070
O=C(NCc1ccc([N+](=O)[O-])cc1)c1cncc(-c2c[nH]c(=O)c3c2CCCC3)c1 [Example 28, N-(4-nitrobenzyl)-5-(1-oxo-1,2,5,6,7,8-hexahydroisoquinolin-4-yl)nicotinamide]	400
O=c1[nH]cc(-c2ccc(CNCc3ccccn3)o2)c2c1CCCC2 [Example 62, 4-(5-{[(pyridin-2-ylmethyl)amino]-methyl}furan-2-yl)-5,6,7,8-tetrahydro-2H-isoquinolin-1-one]	1530
O=c1[nH]cc(Nc2cccc(CO)c2)c2c1CCCC2 [Example 8, 4-(3-hydroxymethylphenyl-amino)-5,6,7,8-tetrahydro-2H-isoquinolin-1-one]	610
Cc1cnc(CNC(=O)c2cncc(-c3c[nH]c(=O)c4c3CCCC4)c2)cn1 [Example 39, N-(5-methylpyrazin-2-ylmethyl)-5-(1-oxo-1,2,5,6,7,8-hexahydroisoquinolin-4-yl)nicotinamide]	5890
CS(=O)(=O)c1cccc(Nc2c[nH]c(=O)c3c2CCCC3)c1 [Example 6, 4-(3-methanesulfonylphenyl-amino)-5,6,7,8-tetrahydro-2H-isoquinolin-1-one]	800
O=c1[nH]cc(-c2ccc(CNS(=O)(=O)c3ccc(Oc4ccccn4)cc3)o2)c2c1CCCC2 [Example 85, N-[5-(1-oxo-1,2,5,6,7,8-hexahydroisoquinolin-4-yl)furan-2-ylmethyl]-4-(pyridin-2-yloxy)benzenesulfonamide]	1630
O=C(NCc1ccc(-c2c[nH]c(=O)c3c2CCCC3)o1)C(F)(F)F [Example 80, 2,2,2-trifluoro-N-[5-(1-oxo-1,2,5,6,7,8-hexahydroisoquinolin-4-yl)furan-2-ylmethyl]acetamide]	540
O=C(c1cncc(-c2c[nH]c(=O)c3c2CCCC3)c1)N1CCC(c2ccncc2)C1 (centres unmarked) [Example 36, 4-[5-(3-pyridin-4-ylpyrrolidine-1-carbonyl)pyridin-3-yl]-5,6,7,8-tetrahydro-2H-isoquinolin-1-one]	420
CC(=O)Nc1cccc(Nc2c[nH]c(=O)c3c2CCCC3)c1 [Example 5, N-[3-(1-oxo-1,2,5,6,7,8-hexahydroisoquinolin-4-ylamino)-phenyl]acetamide]	390
O=c1[nH]cc(-c2ccc(CNCN3CCC(N4CCCC4)CC3)o2)c2c1CCCC2 [Example 64, 4-(5-{[(4-pyrrolidin-1-ylpiperidin-1-ylmethyl)amino]methyl}furan-2-yl)-5,6,7,8-tetrahydro-2H-isoquinolin-1-one]	340
Cc1nn(C)c(C)c1CNC(=O)c1cncc(-c2c[nH]c(=O)c3c2CCCC3)c1 [Example 35, 5-(1-oxo-1,2,5,6,7,8-hexahydroisoquinolin-4-yl)-N-(1,3,5-trimethyl-1H-pyrazol-4-ylmethyl)-nicotinamide]	6880
Cn1c(CNCc2ccc(-c3c[nH]c(=O)c4c3CCCC4)o2)nc2ccccc21 [Example 55, 4-(5-{[(1-methyl-1H-benzoimidazol-2-ylmethyl)amino]methyl}furan-2-yl)-5,6,7,8-tetrahydro-2H-isoquinolin-1-one]	4540
O=C(NCc1ccc(-c2c[nH]c(=O)c3c2CCCC3)o1)c1cccnc1 [Example 84, N-[5-(1-oxo-1,2,5,6,7,8-hexahydroisoquinolin-4-yl)furan-2-ylmethyl]nicotinamide]	790
CN(Cc1cccc([N+](=O)[O-])c1)C(=O)c1cncc(-c2c[nH]c(=O)c3c2CCCC3)c1 [Example 32, N-methyl-N-(3-nitrobenzyl)-5-(1-oxo-1,2,5,6,7,8-hexahydroisoquinolin-4-yl)nicotinamide]	770
CCN1CCCC1CNC(=O)c1cncc(-c2c[nH]c(=O)c3c2CCCC3)c1 (centres unmarked) [Example 49, N-(1-ethylpyrrolidin-2-ylmethyl)-5-(1-oxo-1,2,5,6,7,8-hexahydroisoquinolin-4-yl)nicotinamide]	5110
O=C(NCCc1cccnc1)c1cccc(Nc2c[nH]c(=O)c3c2CCCC3)c1 [Example 23, 3-(1-Oxo-1,2,5,6,7,8-hexahydroisoquinolin-4-ylamino)-N-(2-pyridin-3-ylethyl)benzamide]	2010
CN(Cc1ccncc1)C(=O)c1cncc(-c2c[nH]c(=O)c3c2CCCC3)c1 [Example 38, N-methyl-5-(1-oxo-1,2,5,6,7,8-hexahydroisoquinolin-4-yl)-N-pyridin-4-ylmethylnicotinamide]	3190
O=C(c1cccc(Nc2c[nH]c(=O)c3c2CCCC3)c1)N1CCCC1 [Example 21, 4-[3-(Pyrrolidin-1-carbonyl)phenylamino]-5,6,7,8-tetrahydro-2H-isoquinolin-1-one]	10600
O=c1[nH]cc(-c2ccc(CNCc3cccnc3)o2)c2c1CCCC2 [Example 59, 4-(5-{[(pyridin-3-ylmethyl)amino]-methyl}furan-2-yl)-5,6,7,8-tetrahydro-2H-isoquinolin-1-one]	990
CC(C)CC(=O)NCc1ccc(-c2c[nH]c(=O)c3c2CCCC3)o1 [Example 81, 3-methyl-N-[5-(1-oxo-1,2,5,6,7,8-hexahydroisoquinolin-4-yl)furan-2-ylmethyl]butyramide]	1070
O=C(NCc1ccc(-c2c[nH]c(=O)c3c2CCCC3)o1)c1ccco1 [Example 82, N-[5-(1-oxo-1,2,5,6,7,8-hexahydroisoquinolin-4-yl)furan-2-ylmethyl]furan-2-carboxamide]	460
COc1cccc(S(=O)(=O)NCc2ccc(-c3c[nH]c(=O)c4c3CCCC4)o2)c1 [Example 86, 3-methoxy-N-[5-(1-oxo-1,2,5,6,7,8-hexahydroisoquinolin-4-yl)furan-2-ylmethyl]benzenesulfonamide]	2480
O=c1[nH]cc(-c2ccc(CN3CCSC3)o2)c2c1CCCC2 [Example 76, 4-(5-thiazolidin-3-ylmethylfuran-2-yl)-5,6,7,8-tetrahydro-2H-isoquinolin-1-one]	440
O=c1[nH]cc(-c2ccc(CNCc3nc4ccccc4[nH]3)o2)c2c1CCCC2 [Example 68, 4-(5-{[(1H-benzimidazol-2-ylmethyl)amino]methyl}furan-2-yl)-5,6,7,8-tetrahydro-2H-isoquinolin-1-one]	340
COc1ccc(C(=O)NCc2ccc(-c3c[nH]c(=O)c4c3CCCC4)o2)cc1 [Example 83, 4-methoxy-N-[5-(1-oxo-1,2,5,6,7,8-hexahydroisoquinolin-4-yl)furan-2-ylmethyl]benzamide]	1250
O=C(NCCc1ccncc1)c1cncc(-c2c[nH]c(=O)c3c2CCCC3)c1 [Example 43, 5-(1-oxo-1,2,5,6,7,8-hexahydroisoquinolin-4-yl)-N-(2-pyridin-4-ylethyl)nicotinamide]	820
CN(Cc1ccc(-c2c[nH]c(=O)c3c2CCCC3)o1)Cc1nc2c(s1)CCCC2 [Example 66, 4-(5-{[methyl-(4,5,6,7-tetrahydro-benzothiazol-2-ylmethyl)amino]-methyl}furan-2-yl)-5,6,7,8-tetrahydro-2H-isoquinolin-1-one]	1180
O=c1[nH]cc(-c2ccc(CN3CCC(O)C3)o2)c2c1CCCC2 (centres unmarked) [Example 63, 4-[5-(3-hydroxypyrrolidin-1-ylmethyl)furan-2-yl]-5,6,7,8-tetrahydro-2H-isoquinolin-1-one]	240
